Source: ChEMBL document CHEMBL3769338, “Tricyclic phenothiazine and phenoselenazine derivatives as potential multi-targeting agents to treat Alzheimer's disease” (Medchemcomm, 2015)
Active and inactive are the calls of the source. No cut-off for these calls is given here.

Tested on: not listed separately
Test: Cytotoxicity against human SH-SY5Y cells assessed as cell viability at 50 uM after 24 hrs by MTT assay relative to untreated control
Assay type: cell-based
Conditions: read-out: Activity
For COc1ccc(C(=O)N2c3ccccc3[Se]c3ccc(Cl)cc32)cc1OC, the viability at 24 h, 50 µM was 76%.
In the case of O=c1c2ccccc2[se]n1-c1ccccc1 [EBSELEN], the viability at 24 h, 50 µM is reported as 53.9%.
c1ccc2c(c1)Nc1ccccc1S2 [PHENOTHIAZINE] gave a viability at 24 h, 50 µM of 63.3%.
Clc1ccc2c(c1)Nc1ccccc1S2 gave a viability at 24 h, 50 µM of 63.3%.
Compound COc1ccc(C(=O)N2c3ccccc3Sc3ccc(Cl)cc32)cc1OC has a viability at 24 h, 50 µM of 63.3%.
For COc1ccc(C(=O)N2c3ccccc3Sc3ccccc32)cc1OC, the viability at 24 h, 50 µM was 63.3%.
Compound c1ccc2c(c1)Nc1ccccc1[Se]2 has a viability at 24 h, 50 µM of 76%.
COc1ccc(C(=O)N2c3ccccc3[Se]c3ccccc32)cc1OC showed a viability at 24 h, 50 µM of 76%.
Clc1ccc2c(c1)Nc1ccccc1[Se]2 showed a viability at 24 h, 50 µM of 43%.

Molecular target: Amyloid-beta precursor protein (Homo sapiens) (UniProt P05067)
Sequence (P05067 whole entry): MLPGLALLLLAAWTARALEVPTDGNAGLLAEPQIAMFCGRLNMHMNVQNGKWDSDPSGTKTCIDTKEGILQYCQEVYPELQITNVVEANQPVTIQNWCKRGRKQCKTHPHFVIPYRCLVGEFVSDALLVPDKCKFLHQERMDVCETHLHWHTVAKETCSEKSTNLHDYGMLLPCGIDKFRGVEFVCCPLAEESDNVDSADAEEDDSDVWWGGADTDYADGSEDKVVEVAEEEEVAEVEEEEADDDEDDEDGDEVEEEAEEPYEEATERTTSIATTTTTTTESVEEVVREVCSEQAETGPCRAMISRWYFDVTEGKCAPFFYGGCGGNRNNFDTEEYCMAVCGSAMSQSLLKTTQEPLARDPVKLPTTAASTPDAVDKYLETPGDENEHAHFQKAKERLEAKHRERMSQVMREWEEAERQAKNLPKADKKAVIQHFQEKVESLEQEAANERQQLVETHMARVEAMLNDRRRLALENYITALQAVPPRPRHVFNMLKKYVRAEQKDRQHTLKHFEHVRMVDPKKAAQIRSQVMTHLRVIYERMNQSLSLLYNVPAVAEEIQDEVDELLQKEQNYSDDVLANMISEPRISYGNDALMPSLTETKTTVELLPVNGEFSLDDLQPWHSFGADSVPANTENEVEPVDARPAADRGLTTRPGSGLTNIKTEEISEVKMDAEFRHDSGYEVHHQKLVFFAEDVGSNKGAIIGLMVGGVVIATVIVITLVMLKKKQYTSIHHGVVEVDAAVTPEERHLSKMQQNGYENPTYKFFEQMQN
Test: Inhibition of amyloid beta (1-42) self-induced aggregation (unknown origin) at 10 uM measured every 5 mins for 16 hrs by thioflavin T fluorescence method relative to control
Conditions: not given
For COc1ccc(C(=O)N2c3ccccc3[Se]c3ccc(Cl)cc32)cc1OC, the inhibition was 9.1%.
Work on O=S(=O)(O)c1cc(S(=O)(=O)O)c2c(/N=N/c3ccccc3)c(O)ccc2c1 yielded an inhibition of 31%.
Work on c1ccc2c(c1)Nc1ccccc1S2 [PHENOTHIAZINE] yielded an inhibition of 59.1%.
Compound Clc1ccc2c(c1)Nc1ccccc1S2 has an inhibition of 33.7%.
For COc1ccc(C(=O)N2c3ccccc3Sc3ccc(Cl)cc32)cc1OC, the inhibition was 6.5%.
In the case of COc1ccc(C(=O)N2c3ccccc3Sc3ccccc32)cc1OC, the inhibition is reported as “inactive”.
In the case of c1ccc2c(c1)Nc1ccccc1[Se]2, the inhibition is reported as 30.7%.
COc1ccc(C(=O)N2c3ccccc3[Se]c3ccccc32)cc1OC gave an inhibition of 8.7%.
Clc1ccc2c(c1)Nc1ccccc1[Se]2 showed an inhibition of 25.1%.

Molecular target: Amyloid-beta precursor protein (Homo sapiens) (UniProt P05067)
Test: Inhibition of amyloid beta (1-42) self-induced aggregation (unknown origin) at 25 uM measured every 5 mins for 16 hrs by thioflavin T fluorescence method relative to control
Conditions: not given
For COc1ccc(C(=O)N2c3ccccc3[Se]c3ccc(Cl)cc32)cc1OC, the inhibition was 5.9%.
In the case of O=S(=O)(O)c1cc(S(=O)(=O)O)c2c(/N=N/c3ccccc3)c(O)ccc2c1, the inhibition is reported as 57.2%.
In the case of c1ccc2c(c1)Nc1ccccc1S2 [PHENOTHIAZINE], the inhibition is reported as 62%.
For Clc1ccc2c(c1)Nc1ccccc1S2, the inhibition was 60.8%.
For COc1ccc(C(=O)N2c3ccccc3Sc3ccc(Cl)cc32)cc1OC, the inhibition was 5.9%.
For COc1ccc(C(=O)N2c3ccccc3Sc3ccccc32)cc1OC, the inhibition was “inactive”.
Compound c1ccc2c(c1)Nc1ccccc1[Se]2 has an inhibition of 45.6%.
COc1ccc(C(=O)N2c3ccccc3[Se]c3ccccc32)cc1OC gave an inhibition of 11.1%.
Clc1ccc2c(c1)Nc1ccccc1[Se]2 gave an inhibition of 45%.

Molecular target: Acetylcholinesterase (Homo sapiens, UniProt P22303)
Sequence (P22303 whole entry): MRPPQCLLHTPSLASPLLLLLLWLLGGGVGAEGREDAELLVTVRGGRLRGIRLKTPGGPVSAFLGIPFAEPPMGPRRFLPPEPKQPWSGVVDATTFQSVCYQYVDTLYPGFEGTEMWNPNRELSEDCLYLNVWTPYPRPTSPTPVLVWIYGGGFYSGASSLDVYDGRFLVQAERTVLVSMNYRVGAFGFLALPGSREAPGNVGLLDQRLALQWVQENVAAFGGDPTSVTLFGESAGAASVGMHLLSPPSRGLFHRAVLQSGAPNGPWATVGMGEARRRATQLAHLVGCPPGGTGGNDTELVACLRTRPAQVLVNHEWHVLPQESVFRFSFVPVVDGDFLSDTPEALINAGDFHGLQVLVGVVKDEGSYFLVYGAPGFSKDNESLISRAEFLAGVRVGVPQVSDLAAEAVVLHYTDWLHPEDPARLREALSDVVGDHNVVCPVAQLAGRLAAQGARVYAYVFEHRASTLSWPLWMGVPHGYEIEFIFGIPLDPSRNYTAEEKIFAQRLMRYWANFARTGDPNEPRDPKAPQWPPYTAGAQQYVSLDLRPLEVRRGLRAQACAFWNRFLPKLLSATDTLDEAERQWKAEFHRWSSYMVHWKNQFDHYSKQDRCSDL
Test: Inhibition of human AChE using acetylthiocholine iodide as substrate preincubated for 5 mins followed by substrate addition measured after 60 to 300 sec by Ellman's method
Conditions: not given
For COc1cccc(C(=O)N2c3ccccc3[Se]c3ccc(Cl)cc32)c1, the IC50 was 5.9 µM.
In the case of O=C(c1ccccc1)N1c2ccccc2Sc2ccccc21, the IC50 is reported as 8 µM.
Work on O=C(c1ccccc1)N1c2ccccc2[Se]c2ccccc21 yielded an IC50 of 5.4 µM.
O=C(c1ccccc1)N1c2ccccc2[Se]c2ccc(Cl)cc21 showed an IC50 of 6 µM.
COc1ccc(C(=O)N2c3ccccc3Sc3ccc(Cl)cc32)cc1 showed an IC50 of 5.9 µM.
COc1ccc(C(=O)N2c3ccccc3[Se]c3ccc(Cl)cc32)cc1OC showed an IC50 of 6.2 µM.
For O=c1c2ccccc2[se]n1-c1ccccc1 [EBSELEN], the IC50 was 6.2 µM.
Work on c1ccc2c(c1)Nc1ccccc1S2 [PHENOTHIAZINE] yielded an IC50 of 7.3 µM.
With Clc1ccc2c(c1)Nc1ccccc1S2 the IC50 was 7.4 µM.
For COc1ccc(C(=O)N2c3ccccc3Sc3ccc(Cl)cc32)cc1OC, the IC50 was 6.4 µM.
Compound COc1ccc(C(=O)N2c3ccccc3Sc3ccccc32)cc1OC has an IC50 of 5.8 µM.
c1ccc2c(c1)Nc1ccccc1[Se]2 showed an IC50 of 5.6 µM.
For COc1ccc(C(=O)N2c3ccccc3[Se]c3ccccc32)cc1OC, the IC50 was 5.1 µM.
In the case of Clc1ccc2c(c1)Nc1ccccc1[Se]2, the IC50 is reported as 6.3 µM.

Molecular target: Amyloid-beta precursor protein (Homo sapiens) (UniProt P05067)
Test: Inhibition of amyloid beta (1-42) self-induced aggregation (unknown origin) measured every 5 mins for 16 hrs by thioflavin T fluorescence method
Conditions: not given
With c1ccc2c(c1)Nc1ccccc1S2 [PHENOTHIAZINE] the inhibition was “Dose-dependent effect”.
For c1ccc2c(c1)Nc1ccccc1[Se]2, the inhibition was “Dose-dependent effect”.

Molecular target: T1, Cholinesterase (Homo sapiens, UniProt P06276)
T1 sequence (P06276 whole entry): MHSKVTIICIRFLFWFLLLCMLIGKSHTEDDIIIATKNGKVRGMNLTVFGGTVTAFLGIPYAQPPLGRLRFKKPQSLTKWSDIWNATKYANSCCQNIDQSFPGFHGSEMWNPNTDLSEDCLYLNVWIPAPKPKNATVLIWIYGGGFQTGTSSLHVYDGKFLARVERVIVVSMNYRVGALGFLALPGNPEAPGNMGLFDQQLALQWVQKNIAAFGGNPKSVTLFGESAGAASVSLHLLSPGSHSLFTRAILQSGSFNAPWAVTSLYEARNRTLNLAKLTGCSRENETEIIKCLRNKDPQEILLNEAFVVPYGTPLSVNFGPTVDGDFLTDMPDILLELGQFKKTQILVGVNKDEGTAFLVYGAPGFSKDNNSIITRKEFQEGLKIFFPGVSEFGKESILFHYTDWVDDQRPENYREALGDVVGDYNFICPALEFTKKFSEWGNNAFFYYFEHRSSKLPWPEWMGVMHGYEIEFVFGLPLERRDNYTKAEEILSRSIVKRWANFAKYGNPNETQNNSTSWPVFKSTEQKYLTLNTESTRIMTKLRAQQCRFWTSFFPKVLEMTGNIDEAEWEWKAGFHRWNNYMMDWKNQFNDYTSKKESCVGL
Test: Potency index, ratio of galantamine IC50 to compound IC50 for inhibition of human BuChE
Conditions: not given
Compound c1ccc2c(c1)Nc1ccccc1S2 [PHENOTHIAZINE] has a Ratio IC50 of 11.
c1ccc2c(c1)Nc1ccccc1[Se]2 gave a Ratio IC50 of 22.

Tested on: not listed separately
Test: Antioxidant activity assessed as DPPH free radical scavenging activity at 50 uM incubated for 60 mins in dark relative to control
Assay type: physicochemical
Conditions: 1 h
In the case of COc1ccc(C(=O)N2c3ccccc3[Se]c3ccc(Cl)cc32)cc1OC, the “inhibition (INH)” value is reported as 38.3%.
In the case of O=c1c2ccccc2[se]n1-c1ccccc1 [EBSELEN], the “inhibition (INH)” value is reported as 34.7%.
In the case of c1ccc2c(c1)Nc1ccccc1S2 [PHENOTHIAZINE], the “inhibition (INH)” value is reported as 92.1%.
For Clc1ccc2c(c1)Nc1ccccc1S2, the “inhibition (INH)” value was 76.4%.
For COc1ccc(C(=O)N2c3ccccc3Sc3ccc(Cl)cc32)cc1OC, the “inhibition (INH)” value was 46.5%.
For COc1ccc(C(=O)N2c3ccccc3Sc3ccccc32)cc1OC, the “inhibition (INH)” value was 44.3%.
In the case of c1ccc2c(c1)Nc1ccccc1[Se]2, the “inhibition (INH)” value is reported as 84.4%.
For COc1ccc(C(=O)N2c3ccccc3[Se]c3ccccc32)cc1OC, the “inhibition (INH)” value was 39%.
In the case of Clc1ccc2c(c1)Nc1ccccc1[Se]2, the “inhibition (INH)” value is reported as 73.2%.

Molecular target: Amyloid-beta precursor protein (Homo sapiens) (UniProt P05067)
Test: Inhibition of amyloid beta (1-42) self-induced aggregation (unknown origin) at 5 uM measured every 5 mins for 16 hrs by thioflavin T fluorescence method relative to control
Conditions: not given
With COc1ccc(C(=O)N2c3ccccc3[Se]c3ccc(Cl)cc32)cc1OC the inhibition was 7.9%.
Work on O=S(=O)(O)c1cc(S(=O)(=O)O)c2c(/N=N/c3ccccc3)c(O)ccc2c1 yielded an inhibition of 20.4%.
With c1ccc2c(c1)Nc1ccccc1S2 [PHENOTHIAZINE] the inhibition was 37.2%.
For Clc1ccc2c(c1)Nc1ccccc1S2, the inhibition was 22%.
Work on COc1ccc(C(=O)N2c3ccccc3Sc3ccc(Cl)cc32)cc1OC yielded an inhibition of 4.5%.
With COc1ccc(C(=O)N2c3ccccc3Sc3ccccc32)cc1OC the inhibition was “inactive”.
Compound c1ccc2c(c1)Nc1ccccc1[Se]2 has an inhibition of 24.1%.
Work on COc1ccc(C(=O)N2c3ccccc3[Se]c3ccccc32)cc1OC yielded an inhibition of 5.7%.
Compound Clc1ccc2c(c1)Nc1ccccc1[Se]2 has an inhibition of 18.5%.

Molecular target: T1, Cholinesterase
Conditions: not given
COc1cccc(C(=O)N2c3ccccc3[Se]c3ccc(Cl)cc32)c1 showed an IC50 of 19.3 µM.
For O=C(c1ccccc1)N1c2ccccc2Sc2ccccc21, the IC50 was > 100 µM.
In the case of O=C(c1ccccc1)N1c2ccccc2[Se]c2ccccc21, the IC50 is reported as 22.7 µM.
With O=C(c1ccccc1)N1c2ccccc2[Se]c2ccc(Cl)cc21 the IC50 was 3.8 µM.
COc1ccc(C(=O)N2c3ccccc3Sc3ccc(Cl)cc32)cc1 gave an IC50 of 5.3 µM.
COc1ccc(C(=O)N2c3ccccc3[Se]c3ccc(Cl)cc32)cc1OC showed an IC50 of 5.7 µM.
For O=c1c2ccccc2[se]n1-c1ccccc1 [EBSELEN], the IC50 was 4.6 µM.
Compound c1ccc2c(c1)Nc1ccccc1S2 [PHENOTHIAZINE] has an IC50 of 5.8 µM.
Work on Clc1ccc2c(c1)Nc1ccccc1S2 yielded an IC50 of 19.2 µM.
Work on COc1ccc(C(=O)N2c3ccccc3Sc3ccc(Cl)cc32)cc1OC yielded an IC50 of 32.6 µM.
Work on COc1ccc(C(=O)N2c3ccccc3Sc3ccccc32)cc1OC yielded an IC50 of 45 µM.
Compound c1ccc2c(c1)Nc1ccccc1[Se]2 has an IC50 of 3 µM.
In the case of COc1ccc(C(=O)N2c3ccccc3[Se]c3ccccc32)cc1OC, the IC50 is reported as 9.1 µM.
In the case of Clc1ccc2c(c1)Nc1ccccc1[Se]2, the IC50 is reported as 4.7 µM.

Molecular target: Amyloid-beta precursor protein (Homo sapiens) (UniProt P05067)
Test: Inhibition of amyloid beta (1-42) self-induced aggregation (unknown origin) at 1 uM measured every 5 mins for 16 hrs by thioflavin T fluorescence method relative to control
Conditions: not given
With COc1ccc(C(=O)N2c3ccccc3[Se]c3ccc(Cl)cc32)cc1OC the inhibition was 8.4%.
For O=S(=O)(O)c1cc(S(=O)(=O)O)c2c(/N=N/c3ccccc3)c(O)ccc2c1, the inhibition was 8.6%.
For c1ccc2c(c1)Nc1ccccc1S2 [PHENOTHIAZINE], the inhibition was 18.3%.
With Clc1ccc2c(c1)Nc1ccccc1S2 the inhibition was 10.3%.
COc1ccc(C(=O)N2c3ccccc3Sc3ccc(Cl)cc32)cc1OC showed an inhibition of 6.2%.
With COc1ccc(C(=O)N2c3ccccc3Sc3ccccc32)cc1OC the inhibition was “inactive”.
For c1ccc2c(c1)Nc1ccccc1[Se]2, the inhibition was 16.3%.
With COc1ccc(C(=O)N2c3ccccc3[Se]c3ccccc32)cc1OC the inhibition was 6.3%.
With Clc1ccc2c(c1)Nc1ccccc1[Se]2 the inhibition was 14.5%.
